Data set [1] has as its system HORSS: barley, including spring and winter (Hordeum vulgare). The experiment in a line: Post-emergent Test III, herbicidal activity in wheat and barley. Format: in vivo. The settings on record: for pest or weed control at 35 g/ha / pest or weed control at 70 g/ha: Hordeum vulgare, post-emergence, 504 h; for pest or weed control at 35 g/ha: 35 g ai/ha; for pest or weed control at 70 g/ha: 70 g ai/ha; for GR20 HORSS: probit analysis. As for the experimental part:
(§1) Post-emergent Test III. Seeds of the desired test plant species were planted in Sun Gro MetroMix® 306 planting mixture, which typically has a pH of 6.0 to 6.8 and an organic matter content of about 30 percent, in plastic pots with a surface area of 103.2 square centimeters (cm^2). When required to ensure good germination and healthy plants, a fungicide treatment and/or other chemical or physical treatment was applied. The plants were grown for 7-36 days (d) in a greenhouse with an approximate 14 hour (h) photoperiod which was maintained at about 18° C. during the day and 17° C. during the night. Nutrients and water were added on a regular basis and supplemental lighting was provided with overhead metal halide 1000-Watt lamps as necessary. The plants were employed for testing when they reached the second or third true leaf stage.
(§2) A weighed amount, determined by the highest rate to be tested, of each test compound was placed in a 25 mL glass vial and was dissolved in 4 mL of a 97:3 v/v mixture of acetone and DMSO to obtain concentrated stock solutions. […] The concentrated stock solutions obtained were diluted with 20 mL of an aqueous mixture containing acetone, water, isopropyl alcohol, DMSO, Agri-Dex crop oil concentrate, and X-77 surfactant in a 48:39:10:1.5:1.5:0.02 v/v ratio to obtain spray solutions containing the highest application rates. Additional application rates were obtained by serial dilution of 12 mL of the high rate solution into a solution containing 2 mL of 97:3 v/v mixture of acetone and DMSO and 10 mL of an aqueous mixture containing acetone, water, isopropyl alcohol, DMSO, Agri-Dex crop oil concentrate, and X-77 surfactant in a 48:39:10:1.5:1.5:0.02 v/v ratio to obtain ½×, ¼×, ⅛× and 1/16× rates of the high rate. Compound requirements are based upon a 12 mL application volume at a rate of 187 liters per hectare (L/ha). Formulated compounds were applied to the plant material with an overhead Mandel track sprayer equipped with 8002E nozzles calibrated to deliver 187 L/ha over an application area of 0.503 square meters at a spray height of 18 inches (43 cm) above the average plant canopy height. Control plants were sprayed in the same manner with the solvent blank.
(§3) The treated plants and control plants were placed in a greenhouse as described above and watered by subirrigation to prevent wash-off of the test compounds. After 21 d, the condition of the test plants as compared with that of the untreated plants was determined visually and scored on a scale of 0 to 100 percent where 0 corresponds to no injury and 100 corresponds to complete kill.
(§4) By applying the well-accepted probit analysis as described by J. Berkson in Journal of the American Statistical Society, 48, 565 (1953) and by D. Finney in “Probit Analysis” Cambridge University Press (1952), herbicidal injury of a specific compound at various rates can be used to calculate GR20, GR50, GR80 and GR90 values, which are defined as growth reduction factors that correspond to the effective dose of herbicide required to provide plant growth reduction (GR) of 20 percent, 50 percent, 80 percent and 90 percent, respectively. Probit analysis was applied to data collected from multiple dose rates of individual compounds utilizing the procedures explained in the following examples. The analysis of those dose rates is captured in the following tables.

In data set [2] the test system is KCHSC: kochia (Kochia scoparia). Described as above. Type of data set: in vivo. The conditions noted are these: for pest or weed control at 35 g/ha / pest or weed control at 70 g/ha: Bassia scoparia, post-emergence, 504 h; for pest or weed control at 35 g/ha: 35 g ai/ha; for pest or weed control at 70 g/ha: 70 g ai/ha; for GR50 KCHSC: dose for 50 percent growth reduction; for GR50 KCHSC / GR80 KCHSC: probit analysis; for GR80 KCHSC: dose for 80 percent growth reduction. The protocol:
as §1, §2, §3, §4

Data set [3] relates to MATSS: scented mayweed (Matricaria chamomilla), pineappleweed (Matricaria matricarioides). The description is as above. The settings on record: for pest or weed control at 35 g/ha / pest or weed control at 70 g/ha: Matricaria chamomilla, post-emergence, 504 h; for pest or weed control at 35 g/ha: 35 g ai/ha; for pest or weed control at 70 g/ha: 70 g ai/ha; for GR50 MATSS: dose for 50 percent growth reduction; for GR50 MATSS / GR80 MATSS: probit analysis; for GR80 MATSS: dose for 80 percent growth reduction. Type of data set: in vivo. As for the experimental part:
as §1, §2, §3, §4

Data set [4] concerns TRZSS: wheat, including spring and winter (Triticum aestivum). Described as above. Type of data set: in vivo. The settings on record: for GR20 TRZSS: probit analysis; for pest or weed control at 35 g/ha / pest or weed control at 70 g/ha: Triticum aestivum, post-emergence, 504 h; for pest or weed control at 35 g/ha: 35 g ai/ha; for pest or weed control at 70 g/ha: 70 g ai/ha. The protocol: as §1, §2, §3, §4

[5] abbreviates: Table 8, post-emergent, 21 d, read-out: Visual Growth Reduction (%) 21 Days After Application HORSS.
The mark [6] stands for this setting: Table 8, dose for 20 percent growth reduction, 21 d.
[7] abbreviates: Table 8, post-emergent, 21 d, read-out: Visual Growth Reduction (%) 21 Days After Application KCHSC.
Where [8] appears, read: Table 8, post-emergent, 21 d, read-out: Visual Growth Reduction (%) 21 Days After Application MATSS.
Where [9] appears, read: Table 8, post-emergent, 21 d, read-out: Visual Growth Reduction (%) 21 Days After Application TRZSS.
Setting [10] is: 21 days after application, read-out: Visual Gorowth Reduction (%) 21 days After Application HORSS.
[11] abbreviates: dose for 20 percent growth reduction (crop), 21 days after application.
Where [12] appears, read: 21 days after application, read-out: Visual Gorowth Reduction (%) 21 days After Application KCHSC.
Where [13] appears, read: 21 days after application, read-out: Visual Gorowth Reduction (%) 21 days After Application MATSS.
The mark [14] stands for this setting: 21 days after application, read-out: Visual Gorowth Reduction (%) 21 days After Application TRZSS.

Each structure is given as a SMILES string. Like-named read-outs stand apart in the source and are kept apart here.

In general, melting point refers to the temperature, or range, at which the solid turns liquid.

Turning to `Nc1cc(-c2cc(F)c(Br)cc2F)nc(C(=O)O)c1Cl` [Compound 3], the melting point was in the range of 172 to 174 °C. In data set [1] (setting [5]), the pest or weed control at 35 g/ha was in the range of 85 to 94% and the pest or weed control at 70 g/ha was in the range of 95 to 100%. Moreover, the “GR20 HORSS” value in data set [1] (setting [6]) is on record as 1 g ai/ha. For the same compound, in data set [2] (setting [7]), the pest or weed control at 35 g/ha was 95 to 100% and the pest or weed control at 70 g/ha fell in the range of 95 to 100%. For the same compound, in data set [2] (Table 8, 21 d), the “GR50 KCHSC” value was determined as 2 g ai/ha and the “GR80 KCHSC” value is 8 g ai/ha. Further, in data set [3] (setting [8]), the pest or weed control at 35 g/ha lay in the range of 95 to 100% and the pest or weed control at 70 g/ha was in the range of 95 to 100%. Besides, in data set [3] (Table 8, 21 d), the “GR50 MATSS” value is on record as 4 g ai/ha and the “GR80 MATSS” value is on record as 11 g ai/ha. Besides, the “GR20 TRZSS” value in data set [4] (setting [6]) is on record as 1 g ai/ha. In data set [4] (setting [9]), the pest or weed control at 35 g/ha lay in the range of 85 to 94% and the pest or weed control at 70 g/ha was 85 to 94%.
The compound `Nc1c(F)c(-c2cc(F)c(I)cc2F)nc(C(=O)O)c1Cl` [Compound 69] had a melting point of 159 to 161 °C. In data set [1] (setting [10]), the pest or weed control at 35 g/ha fell in the range of 85 to 94% and the pest or weed control at 70 g/ha was in the range of 95 to 100%. The “GR20 HORSS” value in data set [1] (setting [11]) was found to be 1 g ai/ha. Moreover, in data set [2] (setting [12]), the pest or weed control at 35 g/ha fell in the range of 85 to 94% and the pest or weed control at 70 g/ha lay within 85 to 94%. Besides, in data set [2] (21 days after application), the “GR50 KCHSC” value came to 5 g ai/ha and the “GR80 KCHSC” value came out at 19 g ai/ha. In addition, in data set [3] (setting [13]), the pest or weed control at 35 g/ha fell in the range of 75 to 84% and the pest or weed control at 70 g/ha is 85 to 94%. Further, in data set [3] (21 days after application), the “GR50 MATSS” value amounted to 5 g ai/ha and the “GR80 MATSS” value amounted to 29 g ai/ha. In data set [4] (setting [14]), the pest or weed control at 35 g/ha was in the range of 85 to 94% and the pest or weed control at 70 g/ha fell in the range of 85 to 94%. Further, the “GR20 TRZSS” value in data set [4] (setting [11]) came out at 1 g ai/ha.
Take `COC(=O)c1nc(-c2ccc(I)c(F)c2)c(C)c(N)c1Cl` [Compound 79, Methyl 4-amino-3-chloro-6-(3-fluoro-4-iodophenyl)-5-methylpicolinate]: the melting point is 121 to 124 °C. In data set [1] (setting [5]), the pest or weed control at 35 g/ha fell in the range of 85 to 94% and the pest or weed control at 70 g/ha is 85 to 94%. For the same compound, in data set [1] (setting [6]), the “GR20 HORSS” value amounted to 1 g ai/ha. In data set [2] (setting [7]), the pest or weed control at 35 g/ha was in the range of 60 to 74% and the pest or weed control at 70 g/ha lay in the range of 75 to 84%. In addition, in data set [2] (Table 8, 21 d), the “GR50 KCHSC” value amounted to 24 g ai/ha and the “GR80 KCHSC” value amounted to 70 g ai/ha. For the same compound, in data set [3] (setting [8]), the pest or weed control at 35 g/ha fell in the range of 75 to 84% and the pest or weed control at 70 g/ha fell in the range of 85 to 94%. In addition, in data set [3] (Table 8, 21 d), the “GR50 MATSS” value was 13 g ai/ha and the “GR80 MATSS” value came to 46 g ai/ha. Further, the “GR20 TRZSS” value in data set [4] (setting [6]) amounted to 2 g ai/ha. Further, in data set [4] (setting [9]), the pest or weed control at 35 g/ha was in the range of 75 to 84% and the pest or weed control at 70 g/ha lay in the range of 85 to 94%.
Take `C=Cc1c(C(=O)O)nc(-c2ccc(C(F)(F)F)c(F)c2)c(F)c1N` [Compound 86]: the melting point was 120 to 122 °C. Moreover, in data set [1] (setting [10]), the pest or weed control at 35 g/ha lay in the range of 30 to 44% and the pest or weed control at 70 g/ha lay within 30 to 44%. The “GR20 HORSS” value in data set [1] (setting [11]) turned out to be 14 g ai/ha. Also, in data set [2] (setting [12]), the pest or weed control at 35 g/ha is 75 to 84% and the pest or weed control at 70 g/ha lay within 75 to 84%. In data set [2] (21 days after application), the “GR50 KCHSC” value is listed as 12 g ai/ha and the “GR80 KCHSC” value came out at 55 g ai/ha. In data set [3] (setting [13]), the pest or weed control at 35 g/ha was in the range of 60 to 74% and the pest or weed control at 70 g/ha is 60 to 74%. Besides, in data set [3] (21 days after application), the “GR50 MATSS” value was 22 g ai/ha and the “GR80 MATSS” value stood at 85 g ai/ha. Moreover, in data set [4] (setting [14]), the pest or weed control at 35 g/ha lay in the range of 60 to 74% and the pest or weed control at 70 g/ha lay in the range of 60 to 74%. Besides, the “GR20 TRZSS” value in data set [4] (setting [11]) stood at 1 g ai/ha.
Turning to `Nc1cc(-c2ccc(I)cc2F)nc(C(=O)O)c1Cl` [Compound 124], the melting point is 208.4 to 210.2 °C. For the same compound, in data set [1] (setting [5]), the pest or weed control at 35 g/ha is 85 to 94% and the pest or weed control at 70 g/ha fell in the range of 95 to 100%. Also, the “GR20 HORSS” value in data set [1] (setting [6]) stood at 1 g ai/ha. Moreover, in data set [2] (setting [7]), the pest or weed control at 35 g/ha lay in the range of 85 to 94% and the pest or weed control at 70 g/ha was in the range of 85 to 94%. In data set [2] (Table 8, 21 d), the “GR50 KCHSC” value is reported as 3 g ai/ha and the “GR80 KCHSC” value was determined as 29 g ai/ha. Moreover, in data set [3] (setting [8]), the pest or weed control at 35 g/ha was 75 to 84% and the pest or weed control at 70 g/ha lay in the range of 85 to 94%. Also, in data set [3] (Table 8, 21 d), the “GR80 MATSS” value was 32 g ai/ha. Besides, in data set [4] (setting [6]), the “GR20 TRZSS” value was determined as 1 g ai/ha. Also, in data set [4] (setting [9]), the pest or weed control at 35 g/ha was in the range of 85 to 94% and the pest or weed control at 70 g/ha was 85 to 94%.
